Assay results from publication PMC11726150, “Pre‐ADMET studies of 5‐(3′,4′‐dihydroxyphenyl)‐γ‐valerolactone, the bioactive intestinal metabolite of proanthocyanidins” (Archiv Der Pharmazie, 2024).
“And” between values parts separate entries of the source, which are not always exact repeats. Equal values may be shown once. Where a name gives a salt, the structure may show the parent alone.

Assays:
[1] = In vitro transport study across 21‐day Caco2 monolayers; format: in vitro ADME, human; conditions: human, Caco-2, Caco2 model, N = 4
Protocol: (§1) Caco2 cells between passage numbers 42–50 and MDCK cells between passage numbers 21–26 were used for transport studies; the assay was conducted as reported by Volpe^[ [33] ^] with slight modifications. Transport experiments were performed in 12‐well Transwell plates. Caco2 cells were seeded at a density of 60,000 cells/cm^2 and grown for 21 days, with change of media every 3 days, while MDCK cells were seeded at a density of 70,000 cells/cm^2 and grown for 5 days, changing the medium daily. The physiological and morphological formation of a confluent monolayer was evaluated by measuring the TEER value: Caco2 monolayers became confluent 1 week after seeding with TEER values greater than 450 Ω/cm^2, while MDCK monolayers became confluent 24 h after seeding with TEER values greater than 90 Ω/cm^2. Phenol red and serum‐free DMEM/F12 medium was used as transport buffer. For bidirectional transport, VL (50 μM) and control compound (propranolol and paclitaxel, 10 μM) were added to the apical side to determine apical to basolateral transport (A–B; absorptive direction) and to the basal side to determine basolateral to apical transport (B–A; secretory direction). The volume of the apical and basolateral chambers was 0.5 and 1.5 mL, respectively. Aliquots of 120 μL were taken from the basolateral (for A–B transport) or the apical (for B–A transport) chamber at 30, 60, 90, and 120 min. An equal volume was replaced with a transport buffer at every time point. At the beginning and at the end of the experiment, an aliquot was also taken from the apical or basolateral chamber for analysis of the drug. To determine the integrity of monolayers, TEER values were measured before and after the experiment. In addition, at the end of the experiment cells were collected and lysed to evaluate the compound intake. Briefly, cells were washed twice with cold PBS and 200 µL of cold MeOH was added to detach and lysate the cells; subsequently, cells were collected into lo‐bind Eppendorf and sonicated in ice for 10 min, then centrifuged for 15 min at 4°C at 14,000 rpm (Eppendorf Centrifuge 5430 R). The supernatant was collected and used for further analysis.
(§2) The apparent permeability P app (cm/s) of compounds was calculated from the following equation (Equation 1), while P app (cm/s) of the metabolites was calculated from the equation (Equation 2): (1) Papp=dQ/dt×1/C×1/A.
(§3) Equation (1) for calculating P app (cm/s) of tested reference compounds. (2) Papp=Metabolic cleareance/A.
(§4) Equation (2) for calculating P app (cm/s) of compound metabolites.
(§5) with Metabolic cleareance=Rate of metabolism/C and where dQ/dt is the rate of transport, C is the initial concentration in the donor compartment, and A is the surface area of the filter. To quantify the rate of transport, cumulative amounts of test compounds were plotted against time (min).
(§6) Efflux ratio was calculated using the following equation (Equation 3)^[ [48] ^]: (3) Efflux ratio=Papp(B−A)/Papp(A−B).

[2] = system: Caco2 monolayers; assay: as above; format: in vitro ADME, human; conditions: Caco2 model, VL 50 μM dosed (VLS formed as metabolite), controls 10 μM, N = 4
Protocol: as §1, §2, §3, §4, §5, §6

[3] = In vitro transport study across 5‐day Wt‐MDCK monolayers; format: in vitro ADME, canine; conditions: dog; Wt‐MDCK model; Papp(B−A)/Papp(A−B); N = 4; read-out: Efflux ratio (mean ± SD)
Protocol: as §1, §2, §3, §4, §5, §6

[4] = system: Wt‐MDCK monolayers; assay: as above; format: in vitro ADME, canine; conditions: Wt‐MDCK model, VL 50 μM dosed (VLS formed as metabolite), controls 10 μM, N = 4
Protocol: as §1, §2, §3, §4, §5, §6

[5] = target: T1, P‐gp (Homo sapiens, UniProt P08183); assay: Rhodamine‐123 uptake assay, inhibition, differentiated Caco2 cells; format: cell-based; conditions: VL initial concentration 50 and 25 µM, 90 min
T1 construct: P‐gp modulation was determined in differentiated Caco2 cells by Rh‐123 uptake assay; endogenous in cells; host or cells: differentiated Caco2 cells (21 days)
Protocol: To evaluate P‐gp inhibition on day 21, the medium was removed and 200 μL Hank's salt solution was added, the plate was then incubated for 40 min. […] After treatment cells were washed three times with ice‐cold PBS, and 200 μL of lysis buffer (0.1% Triton X 100 and 0.2 N NaOH) was added. The plate was kept on a shaker for 2 h at room temperature, and 100 μL of lysate was used to measure the Rh‐123 fluorescence at 485/529 nm. Further, 10 μL of lysate was taken in a separate 96‐well plate, and 190 μL Bradford reagent was added. The plate was shaken for 5–10 min, and absorbance was measured at 595 nm. Each sample was normalized by dividing the fluorescence of each sample by the total proteins present in the lysate.^[ [46] ^]

[6] = system: P‐gp; assay: Rhodamine‐123 uptake assay, induction (48 h), differentiated Caco2 cells; format: cell-based, human; conditions: 2.5 to 10 µM, 48 h treatment
Protocol: P‐gp modulation was determined in differentiated Caco2 cells by Rh‐123 uptake assay.^[ [49] ^] In brief, cells in the logarithmic growth phase with 70%–80% confluency were harvested and seeded at a density of 2 × 10^4/well of a 96‐well plate. Cells were allowed to grow for 21 days in a CO2 incubator changing the medium every other day.
After treatment, cells were washed with Hank's buffer and 200 μL of phenol, and serum‐free DMEM/F12 medium containing […] of Rh‐123 was added and cells were incubated for 90 min. The final steps were as described previously.

[7] = target: T2, BCRP (Homo sapiens, UniProt Q9UNQ0); assay: Rhodamine‐123 uptake assay, cotreatment with elacridar, differentiated Caco2 cells; format: cell-based; conditions: at higher doses
T2 construct: performing the Rh‐123 uptake‐based efflux assay in the differentiated Caco2 cell line; endogenous in cells; host or cells: differentiated Caco2 cells (21 days)
T2 sequence (Q9UNQ0 1-655): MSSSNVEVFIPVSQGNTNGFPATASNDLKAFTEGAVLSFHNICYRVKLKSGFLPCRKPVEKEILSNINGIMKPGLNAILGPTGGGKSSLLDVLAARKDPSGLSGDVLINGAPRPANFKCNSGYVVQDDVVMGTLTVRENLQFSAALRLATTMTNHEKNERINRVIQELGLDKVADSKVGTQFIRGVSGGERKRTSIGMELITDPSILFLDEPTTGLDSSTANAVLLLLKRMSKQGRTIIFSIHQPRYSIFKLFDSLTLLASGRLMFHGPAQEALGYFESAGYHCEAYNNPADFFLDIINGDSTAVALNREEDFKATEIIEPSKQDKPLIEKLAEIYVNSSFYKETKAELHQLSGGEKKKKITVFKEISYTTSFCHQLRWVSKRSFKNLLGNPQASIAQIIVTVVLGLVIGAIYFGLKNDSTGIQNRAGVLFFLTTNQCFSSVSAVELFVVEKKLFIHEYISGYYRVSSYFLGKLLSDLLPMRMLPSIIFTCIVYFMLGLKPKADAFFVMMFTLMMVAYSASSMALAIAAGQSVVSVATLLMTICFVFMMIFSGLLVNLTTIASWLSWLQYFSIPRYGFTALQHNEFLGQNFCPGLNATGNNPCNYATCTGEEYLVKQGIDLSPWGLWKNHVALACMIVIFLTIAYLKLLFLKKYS

T1 sequence (P08183 whole entry): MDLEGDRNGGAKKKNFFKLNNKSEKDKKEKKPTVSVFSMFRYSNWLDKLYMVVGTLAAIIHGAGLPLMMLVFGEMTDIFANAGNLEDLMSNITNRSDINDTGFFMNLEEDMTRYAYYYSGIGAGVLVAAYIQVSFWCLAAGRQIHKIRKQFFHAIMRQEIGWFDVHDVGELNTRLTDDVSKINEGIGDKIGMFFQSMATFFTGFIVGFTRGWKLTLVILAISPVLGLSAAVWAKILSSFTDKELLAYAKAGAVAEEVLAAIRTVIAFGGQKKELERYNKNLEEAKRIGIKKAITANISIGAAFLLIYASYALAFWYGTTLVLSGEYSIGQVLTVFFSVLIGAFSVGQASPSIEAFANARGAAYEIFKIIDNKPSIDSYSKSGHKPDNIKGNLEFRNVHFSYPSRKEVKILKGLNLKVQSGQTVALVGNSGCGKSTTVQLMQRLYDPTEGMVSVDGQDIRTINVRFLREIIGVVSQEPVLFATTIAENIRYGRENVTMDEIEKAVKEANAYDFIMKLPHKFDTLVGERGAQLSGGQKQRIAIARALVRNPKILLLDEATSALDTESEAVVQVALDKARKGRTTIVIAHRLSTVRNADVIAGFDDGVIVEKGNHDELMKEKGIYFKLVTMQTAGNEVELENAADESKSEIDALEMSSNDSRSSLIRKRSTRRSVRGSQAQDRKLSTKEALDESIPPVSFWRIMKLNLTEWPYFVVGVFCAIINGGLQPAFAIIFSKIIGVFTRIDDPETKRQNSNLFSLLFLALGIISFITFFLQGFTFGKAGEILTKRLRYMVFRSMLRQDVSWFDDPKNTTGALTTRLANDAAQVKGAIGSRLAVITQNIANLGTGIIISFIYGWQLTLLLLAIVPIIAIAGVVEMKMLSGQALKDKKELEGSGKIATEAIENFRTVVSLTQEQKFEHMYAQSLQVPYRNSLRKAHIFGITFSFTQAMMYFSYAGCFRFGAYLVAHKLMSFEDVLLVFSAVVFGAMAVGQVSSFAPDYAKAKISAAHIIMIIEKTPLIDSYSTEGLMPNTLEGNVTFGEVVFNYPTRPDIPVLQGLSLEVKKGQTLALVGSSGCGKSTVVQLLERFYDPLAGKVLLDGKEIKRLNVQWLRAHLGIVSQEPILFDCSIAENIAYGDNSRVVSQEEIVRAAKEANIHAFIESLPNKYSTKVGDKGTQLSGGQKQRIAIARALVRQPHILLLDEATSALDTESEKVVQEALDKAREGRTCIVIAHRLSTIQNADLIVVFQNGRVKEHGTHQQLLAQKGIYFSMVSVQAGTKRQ

O=C1CCC(Cc2ccc(O)c(OS(=O)(=O)O)c2)O1 (centres unmarked) [VLS, valerolactone sulfate]
Papp A→B at 120 min ([1]; absorptive direction, VL 50 μM dosed (VLS formed as metabolite), controls 10 μM, read-out: P app A–B (mean ± SD)): 22.3 ×10⁻⁶ cm/s
Papp B→A at 120 min ([1]; secretory direction, VL 50 μM dosed (VLS formed as metabolite), controls 10 μM, read-out: P app B–A (mean ± SD)): 55.4 ×10⁻⁶ cm/s
efflux ratio at 120 min ([1]; Papp(B−A)/Papp(A−B), read-out: Efflux ratio (mean ± SD)): 2.35 ± 0.341
P app A–B (mean ± SD) ([2]; absorptive direction): 22.25 ×10⁻⁶ cm/s
P app B–A (mean ± SD) ([2]; secretory direction): 55.35 ×10⁻⁶ cm/s
efflux ratio at 120 min [3]: 0.843 ± 0.105
P app A–B (mean ± SD) ([4]; absorptive direction): 17.33 ×10⁻⁶ cm/s and 173.3 ± 25 ×10⁻⁶ cm/s
P app B–A (mean ± SD) ([4]; secretory direction): 14.43 ×10⁻⁶ cm/s
Rh‐123 uptake in cotreatment with CsA 20 µM [5]: nonsignificant results
P‐gp induction [6]: no significant data of P‐gp induction
effect on BCRP efflux transporter [7]: slightly activates the BCRP efflux transporter
